# Assays:
# c-Kit kinase = c-Kit kinase (Homo sapiens (Human), UniProt P10721); assay: c-Kit biochemical assay (AlphaScreen kinase activity)
# Summary of the method: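 IC50 values come from 8-point, 1:3 compound titrations measuring inhibition of peptide phosphorylation by c-Kit (commercial or His-tagged E. coli-expressed) over 1 h at room temperature, read by AlphaScreen PY30/streptavidin beads. Low-ATP version: 10 μM ATP, 100 nM biotin-(E4Y)3; high-ATP version: 100 μM ATP, 30 nM biotin-(E4Y)10.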
# [1] = system: BaF3-FL KIT D816V or BaF3-FL KIT V560G/D816V cell line; assay: Cell-based assays of c-Kit mutant kinase activity (cell proliferation, ATPlite); details: at least one of the c-kit cell assays of Example 7
# Summary of the method: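 BaF3 cells dependent on transfected full-length human KIT D816V or V560G/D816V (pCI-Neo, CMV promoter) were seeded at 1×10^4 cells/well and exposed to 8-point 1:3 dilutions from 10 μM top (0.2% DMSO) for three days at 37° C. ATPlite luminescence gave cell number; IC50 from concentration-response.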
# c-Kit kinase, sequence (P10721 26-976): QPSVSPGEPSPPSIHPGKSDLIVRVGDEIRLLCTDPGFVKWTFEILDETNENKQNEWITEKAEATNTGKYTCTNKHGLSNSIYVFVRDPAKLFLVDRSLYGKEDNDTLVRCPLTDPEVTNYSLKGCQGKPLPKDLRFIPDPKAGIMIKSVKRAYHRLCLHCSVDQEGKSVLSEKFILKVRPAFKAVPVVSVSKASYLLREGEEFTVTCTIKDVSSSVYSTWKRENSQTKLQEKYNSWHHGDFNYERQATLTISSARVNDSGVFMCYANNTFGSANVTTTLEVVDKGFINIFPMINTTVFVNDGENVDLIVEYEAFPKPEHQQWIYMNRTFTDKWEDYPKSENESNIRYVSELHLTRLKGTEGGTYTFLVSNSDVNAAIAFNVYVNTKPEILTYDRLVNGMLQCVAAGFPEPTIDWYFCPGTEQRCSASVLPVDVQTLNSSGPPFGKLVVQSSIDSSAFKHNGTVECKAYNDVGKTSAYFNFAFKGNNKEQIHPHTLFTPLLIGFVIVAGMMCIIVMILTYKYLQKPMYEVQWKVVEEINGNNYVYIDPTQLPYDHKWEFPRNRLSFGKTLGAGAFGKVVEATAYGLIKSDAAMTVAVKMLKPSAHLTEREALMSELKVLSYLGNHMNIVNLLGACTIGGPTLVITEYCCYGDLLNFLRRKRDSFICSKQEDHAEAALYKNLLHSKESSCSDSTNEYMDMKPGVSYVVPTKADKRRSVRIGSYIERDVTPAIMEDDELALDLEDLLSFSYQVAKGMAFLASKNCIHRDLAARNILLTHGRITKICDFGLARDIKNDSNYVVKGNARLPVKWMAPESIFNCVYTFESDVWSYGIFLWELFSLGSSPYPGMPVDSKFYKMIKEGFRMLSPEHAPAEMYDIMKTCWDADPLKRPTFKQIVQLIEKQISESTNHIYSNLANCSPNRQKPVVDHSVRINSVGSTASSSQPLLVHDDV
SMILES,IC50 (c-Kit kinase) [µM],IC50 [1] [µM]
"COc1cc(-c2cc3c(N4CCC(c5nc(C)c(-c6cccc(OC(F)(F)F)c6)[nH]5)CC4)ncnc3[nH]2)ccn1 [P-3014, 6-(2-methoxy-4-pyridyl)-4-[4-[4-methyl-5-[3-(trifluoromethoxy)phenyl]-1H-imidazol-2-yl]-1-piperidyl]-7H-pyrrolo[2,3-d]pyrimidine]",1 to 10,< 10
"COc1ccc(-c2[nH]c(C3CCN(c4ncnc5[nH]c(-c6ccc(C#N)cc6)cc45)CC3)nc2C)cc1 [P-3015, 4-[4-[4-[5-(4-methoxyphenyl)-4-methyl-1H-imidazol-2-yl]-1-piperidyl]-7H-pyrrolo[2,3-d]pyrimidin-6-yl]benzonitrile]",0.0001 to 1,< 10
"Cc1nc(C2CCN(c3ncnc4[nH]c(-c5ccc(C#N)cc5)cc34)CC2)[nH]c1-c1cccc(F)c1 [P-3016, 4-[4-[4-[5-(3-fluorophenyl)-4-methyl-1H-imidazol-2-yl]-1-piperidyl]-7H-pyrrolo[2,3-d]pyrimidin-6-yl]benzonitrile]",1 to 10,< 10
"COc1ccc(-c2[nH]c(C3CCN(c4ncnc5[nH]c(-c6ccnc(OC)c6)cc45)CC3)nc2C)cc1 [P-3017, 4-[4-[5-(4-methoxyphenyl)-4-methyl-1H-imidazol-2-yl]-1-piperidyl]-6-(2-methoxy-4-pyridyl)-7H-pyrrolo[2,3-d]pyrimidine]",0.0001 to 1,< 10
"COc1ccc(-c2[nH]c(C3CCN(c4ncnc5[nH]c(-c6ccc(C#N)cc6)cc45)CC3)nc2C)cc1F [P-3018, 4-[4-[4-[5-(3-fluoro-4-methoxy-phenyl)-4-methyl-1H-imidazol-2-yl]-1-piperidyl]-7H-pyrrolo[2,3-d]pyrimidin-6-yl]benzonitrile]",1 to 10,< 10
"CCOc1ccc(-c2[nH]c(C3(C)CCN(c4ncnc5[nH]c(-c6ccc(OC)nc6)cc45)CC3)nc2C)cc1 [P-3171, 4-[4-[5-(4-ethoxyphenyl)-4-methyl-1H-imidazol-2-yl]-4-methyl-1-piperidyl]-6-(6-methoxy-3-pyridyl)-7H-pyrrolo[2,3-d]pyrimidine]",0.0001 to 1,< 10
"COc1ccc(-c2[nH]c(C3(C)CCN(c4ncnc5[nH]c(-c6ccc(C#N)cc6)cc45)CC3)nc2C)cn1 [P-3172, 4-[4-[4-[5-(6-methoxy-3-pyridyl)-4-methyl-1H-imidazol-2-yl]-4-methyl-1-piperidyl]-7H-pyrrolo[2,3-d]pyrimidin-6-yl]benzonitrile]",0.0001 to 1,< 10
"COc1ncc(-c2[nH]c(C3CCN(c4ncnc5[nH]c(-c6ccc(C#N)cc6)cc45)CC3)nc2C)cc1F [P-3173, 4-[4-[4-[5-(5-fluoro-6-methoxy-3-pyridyl)-4-methyl-1H-imidazol-2-yl]-1-piperidyl]-7H-pyrrolo[2,3-d]pyrimidin-6-yl]benzonitrile]",0.0001 to 1,< 10
"Cc1nc(C2(C)CCN(c3ncnc4[nH]c(-c5cnn(C(F)F)c5)cc34)CC2)[nH]c1-c1ccc(Cl)cc1 [P-3175, 4-[4-[5-(4-chlorophenyl)-4-methyl-1H-imidazol-2-yl]-4-methyl-1-piperidyl]-6-[1-(difluoromethyl)pyrazol-4-yl]-7H-pyrrolo[2,3-d]pyrimidine]",0.0001 to 1,< 10
"COc1ccc(-c2cc3c(N4CCC(C)(c5nc(C)c(-c6ccc(Cl)cc6)[nH]5)CC4)ncnc3[nH]2)cn1 [P-3176, 4-[4-[5-(4-chlorophenyl)-4-methyl-1H-imidazol-2-yl]-4-methyl-1-piperidyl]-6-(6-methoxy-3-pyridyl)-7H-pyrrolo[2,3-d]pyrimidine]",0.0001 to 1,< 10
"Cc1nc(C2(C)CCN(c3ncnc4[nH]c(-c5ccc(C#N)cc5)cc34)CC2)[nH]c1-c1ccc(C(F)(F)F)cc1 [P-3177, 4-[4-[4-methyl-4-[4-methyl-5-[4-(trifluoromethyl)phenyl]-1H-imidazol-2-yl]-1-piperidyl]-7H-pyrrolo[2,3-d]pyrimidin-6-yl]benzonitrile]",0.0001 to 1,< 10
"COc1ccc(-c2cc3c(N4CCC(C)(c5nc(C)c(-c6ccc(C(F)(F)F)cc6)[nH]5)CC4)ncnc3[nH]2)cn1 [P-3178, 6-(6-methoxy-3-pyridyl)-4-[4-methyl-4-[4-methyl-5-[4-(trifluoromethyl)phenyl]-1H-imidazol-2-yl]-1-piperidyl]-7H-pyrrolo[2,3-d]pyrimidine]",0.0001 to 1,< 10
"Cc1nc(C2(C)CCN(c3ncnc4[nH]c(-c5cnn(C(F)F)c5)cc34)CC2)[nH]c1-c1ccc(C(F)(F)F)cc1 [P-3179, 6-[1-(difluoromethyl)pyrazol-4-yl]-4-[4-methyl-4-[4-methyl-5-[4-(trifluoromethyl)phenyl]-1H-imidazol-2-yl]-1-piperidyl]-7H-pyrrolo[2,3-d]pyrimidine]",0.0001 to 1,< 10
"Cc1nc(C2(C)CCN(c3ncnc4[nH]c(-c5ccc(C#N)cc5)cc34)CC2)[nH]c1-c1ccc(Cl)cc1 [P-3180, 4-[4-[4-[5-(4-chlorophenyl)-4-methyl-1H-imidazol-2-yl]-4-methyl-1-piperidyl]-7H-pyrrolo[2,3-d]pyrimidin-6-yl]benzonitrile]",0.0001 to 1,< 10
"COc1ncc(-c2[nH]c(C3(C)CCN(c4ncnc5[nH]c(-c6ccc(C#N)cc6)cc45)CC3)nc2C)cc1F [P-3181, 4-[4-[4-[5-(5-fluoro-6-methoxy-3-pyridyl)-4-methyl-1H-imidazol-2-yl]-4-methyl-1-piperidyl]-7H-pyrrolo[2,3-d]pyrimidin-6-yl]benzonitrile]",0.0001 to 1,< 10
"COc1ccc(-c2[nH]c(C3(C)CCN(c4ncnc5[nH]c(-c6cnn(C(F)F)c6)cc45)CC3)nc2C)cn1 [P-3182, 6-[1-(difluoromethyl)pyrazol-4-yl]-4-[4-[5-(6-methoxy-3-pyridyl)-4-methyl-1H-imidazol-2-yl]-4-methyl-1-piperidyl]-7H-pyrrolo[2,3-d]pyrimidine]",0.0001 to 1,< 10
"COc1ccc(-c2[nH]c(C3(C)CCN(c4ncnc5[nH]c(C)cc45)CC3)nc2C)cc1F [P-3183, 4-[4-[5-(3-fluoro-4-methoxy-phenyl)-4-methyl-1H-imidazol-2-yl]-4-methyl-1-piperidyl]-6-methyl-7H-pyrrolo[2,3-d]pyrimidine]",0.0001 to 1,< 10
"Cc1cc2c(N3CCC(C)(c4nc(C)c(-c5ccc(C(F)F)cc5)[nH]4)CC3)ncnc2[nH]1 [P-3184, 4-[4-[5-[4-(difluoromethyl)phenyl]-4-methyl-1H-imidazol-2-yl]-4-methyl-1-piperidyl]-6-methyl-7H-pyrrolo[2,3-d]pyrimidine]",0.0001 to 1,< 10
"COc1ncc(-c2nc(C3(C)CCN(c4ncnc5[nH]c(C)cc45)CC3)[nH]c2C)cc1F [P-3185, 4-[4-[4-(5-fluoro-6-methoxy-3-pyridyl)-5-methyl-1H-imidazol-2-yl]-4-methyl-1-piperidyl]-6-methyl-7H-pyrrolo[2,3-d]pyrimidine]",1 to 10,< 10
"COc1ccc(-c2nc(C3(C)CCN(c4ncnc5[nH]c(C)cc45)CC3)[nH]c2C)cn1 [P-3186, 4-[4-[4-(6-methoxy-3-pyridyl)-5-methyl-1H-imidazol-2-yl]-4-methyl-1-piperidyl]-6-methyl-7H-pyrrolo[2,3-d]pyrimidine]",1 to 10,< 10
"COc1ccc(-c2[nH]c(C3(C)CCN(c4ncnc5[nH]c(-c6cnn(C(F)F)c6)cc45)CC3)nc2C)cc1F [P-3187, 6-[1-(difluoromethyl)pyrazol-4-yl]-4-[4-[5-(3-fluoro-4-methoxy-phenyl)-4-methyl-1H-imidazol-2-yl]-4-methyl-1-piperidyl]-7H-pyrrolo[2,3-d]pyrimidine]",0.0001 to 1,< 10
"COc1ccc(-c2cc3c(N4CCC(C)(c5nc(C)c(-c6ccc(OC)c(F)c6)[nH]5)CC4)ncnc3[nH]2)cn1 [P-3188, 4-[4-[5-(3-fluoro-4-methoxy-phenyl)-4-methyl-1H-imidazol-2-yl]-4-methyl-1-piperidyl]-6-(6-methoxy-3-pyridyl)-7H-pyrrolo[2,3-d]pyrimidine]",0.0001 to 1,< 10
"Cc1nc(C2(C)CCN(c3ncnc4[nH]c(-c5cnn(C(F)F)c5)cc34)CC2)[nH]c1-c1ccc(C(F)F)cc1 [P-3189, 4-[4-[5-[4-(difluoromethyl)phenyl]-4-methyl-1H-imidazol-2-yl]-4-methyl-1-piperidyl]-6-[1-(difluoromethyl)pyrazol-4-yl]-7H-pyrrolo[2,3-d]pyrimidine]",0.0001 to 1,< 10
"COc1ccc(-c2cc3c(N4CCC(C)(c5nc(C)c(-c6ccc(C(F)F)cc6)[nH]5)CC4)ncnc3[nH]2)cn1 [P-3190, 4-[4-[5-[4-(difluoromethyl)phenyl]-4-methyl-1H-imidazol-2-yl]-4-methyl-1-piperidyl]-6-(6-methoxy-3-pyridyl)-7H-pyrrolo[2,3-d]pyrimidine]",0.0001 to 1,< 10
"Cc1cc2c(N3CCC(C)(c4nc(C)c(-c5cccc(OC(F)F)c5)[nH]4)CC3)ncnc2[nH]1 [P-3191, 4-[4-[5-[3-(difluoromethoxy)phenyl]-4-methyl-1H-imidazol-2-yl]-4-methyl-1-piperidyl]-6-methyl-7H-pyrrolo[2,3-d]pyrimidine]",1 to 10,< 10
"Cc1nc(C2(C)CCN(c3ncnc4[nH]c(-c5cnn(C(F)F)c5)cc34)CC2)[nH]c1-c1cccc(OC(F)F)c1 [P-3192, 4-[4-[5-[3-(difluoromethoxy)phenyl]-4-methyl-1H-imidazol-2-yl]-4-methyl-1-piperidyl]-6-[1-(difluoromethyl)pyrazol-4-yl]-7H-pyrrolo[2,3-d]pyrimidine]",0.0001 to 1,< 10
